# Assays:
# [1] = tested on: NF-κB subunits p50 and p65 on the scn5a promoter; test: Chromatin immunoprecipitation (ChIP) assay in H9c2 cells; format: cell-based, rat
# Experimental: Formaldehyde cross-linking and chromatin immunoprecipitation was performed as described in manufactory's manual (ChIP-IT™ kit, Activemotif). Briefly, proteins were crosslinked with chromatin using 1% formaldehyde in H9c2 cells with or without treatment. The cells were subsequently sonicated in lysis buffer, and an aliquot of the lysate was used in a PCR reaction. The remaining lysate was cleared with protein G beads. One half of the cleared lysate was incubated with p50 or p65 antibody, while the other half was used as a negative control without the antibody. After reversing the cross-linking, the immuno-complex was digested with proteinase K, and the DNA was purified. DNA was analyzed by PCR with the PicoMax Polymerase (Stratagene, La Jolla, Calif.) and primers specific to the APS3 promoter region.
# [2] = tested on: NF-κB binding to the scn5a promoter; test: Electrophoretic mobility shift assay with H9c2 nuclear extracts; format: cell-based, rat; details: for effect of NF-κB inhibitor on NF-κB binding to scn5a promoter probe: CAPE 10 μM, H9c2, H2O2
# Description: Approximately 5×10^6 cells were scraped for nuclear protein extraction by nuclear extract kit (Activemotif, Carlsbad, Calif.). A double-stranded oligonucleotide containing the consensus-binding sequence (bold) for […] ID NO. 657)) and NF-κB mutant sequence ([NT] ID NO. 658)) from scn5a promoter were used as probes to assay for binding activity of the nuclear extracts. Protein-DNA complexes were detected using biotin end-labeled double-stranded DNA probes prepared by annealing complementary oligonucleotides. Oligonucleotides were labeled in a reaction using terminal deoxynucleotide transferase and biotin-N4-CTP (Pierce, Rockford, Ill.) following the biotin 3' end DNA labeling kit manual. The binding reaction was performed using the LightShift kit (Pierce). […] Following electrophoresis, the DNA-protein complexes were transferred onto nylon membranes and detected using chemiluminescence. TNF-α activated H9c2 cell nuclear extract (5 μg) was used as positive control. The reaction products were separated on a 6% retardation gel.
# scn5a promoter = test: scn5a promoter-reporter (dual luciferase) assay in H9c2 cells; format: cell-based, rat
# Experimental: The scn5a promoter region has previously been defined (Shang, L. L. & Dudley, S. C., Jr. (2005) J. Biol. Chem. 280, 933-940). For these experiments, a new promoter construct that contained the NF-κB consensus binding site was used to test the effect of treatments on scn5a transcription. This construct, pGL3-APS3, consisted of a 937 bp fragment starting from exon 1C to +32 base pairs relative to the start codon located on exon 2 of mouse scn5a gene.
# H9c2 cardiomyocytes were plated in each well of 24-well plates at a density of 2.5×10^4 cells in a final volume of 1 mL of culture medium, allowed to attach overnight, and expand to 70%-80% confluence. Transfection of 0.3 μg of the promoter-reporter construct and 0.013 μg of a plasmid containing the herpes simplex virus thymidine kinase (HSV-TK) promoter driving expression of a synthetic Renilla luciferase (phRL-TK; Promega, Madison, […].) was carried out with 0.9 μL of Fugene6 chemical transfection reagents (Roche, Indianapolis, Ind.) following the manufacturer's instructions. […] Light emission was quantified in a Veritas microplate luminometer using Veritas-version 1.4.0 software (Tuener Biosystems, Sunnyvale, Calif.). […] Four separate transfection sessions were analyzed, and at each session, transfections were performed in triplicate. Three dual luciferase readings were taken for each transfection experiment. […]
# [3] = tested on: cardiac Na+ channel current; test: Whole-cell patch-clamp Na+ current in H9c2 cells; format: cell-based, rat; details: H9c2, 20 μM H2O2 for 48 h, voltage step to −10 mV
# Experimental: Three hours prior to the start of the patch-clamp experiments, H9c2 cells were trypsinized and plated on treated plastic coverslips. H9c2 cells were treated with or without H2O2 as indicated. Glass pipettes were pulled on a Sutter Model P-97 horizontal puller to a resistance of 0.5 to 1.5 MΩ. The glass pipettes were filled with a solution of (in mM) CsCl 60, Cesium Aspartate 80, EGTA sodium 11, HEPES 10, Na2ATP 5 and pH 7.2 with CsOH. The bath solution consisted of (in mM) Na 30, […] chloride 100, CsCl 5, CaCl2 2, MgCl2 1.2, HEPES 10, Glucose 5 and pH 7.4 with NaOH. Once a seal was established, a small amount of suction was applied to obtain the whole cell configuration. From a holding potential of −100 mV, peak currents obtained at −10 mV were used for comparison. Cells were tested at 25° C. Data were sampled at 10 kHz and later filtered at 5 kHz for analysis. Currents were recorded and analyzed with an Axopatch 200B amplifier, Axon Digidata 1230A A/D converter and pClamp software (Molecular Devices Corporation, Sunnyvale, Calif.).
# H9c2 cardiomyocytes = test: Trypan-blue exclusion cell viability assay; format: cell-based
# Experimental: To determine appropriate concentrations of these agents in future experiments, rat H9c2 cardiomyocytes were treated with escalating concentrations of AngII and H2O2, and the dose-dependent cell viability was determined. H9c2 cardiomyocytes were tolerant of a wide range of AngII concentrations from 1-500 nM in serum free medium (FIG. 14A). On the other hand, higher doses of H2O2 induced cell death starting at concentrations of 50 μM (FIG. 14B). […] Exposures of 48 h were used to allow sufficient time for transcriptional effects on the Na^+ current.
# The rat embryonic cardiomyocyte cell line, H9c2 (ATCC cat #CRL-1446), or acutely isolated neonatal rat heart cardiomyocytes were used. Rat neonatal ventricular cells were isolated from 3-day-old Sprague-Dawley rats (Charles River Laboratories Wilmington, Mass.) using a kit and following the manufacturer's instructions (Worthington Biochemical Corp. Lakewood, N.J.). Cells cultured in Dulbecco's modified Eagle's medium (DMEM; ATCC, Manassas, Va.) with 10% fetal calf serum (ATCC) under standard tissue culture conditions at 37° C. to 70-80% confluence were exposed to AngII (Sigma, St. Louis, Mo.) or H2O2 (Sigma) in serum free culture medium (SFM) for a total of 48 h in triplicate in 24 well plates. Experiments were repeated three times. […]
# [4] = tested on: cardiac sodium channel (scn5a) mRNA; test: scn5a mRNA abundance by quantitative real-time RT-PCR in neonatal cardiomyocytes; format: cell-based, rat
# Description: (§1) The rat embryonic cardiomyocyte cell line, H9c2 (ATCC cat #CRL-1446), or acutely isolated neonatal rat heart cardiomyocytes were used. Rat neonatal ventricular cells were isolated from 3-day-old Sprague-Dawley rats (Charles River Laboratories Wilmington, Mass.) using a kit and following the manufacturer's instructions (Worthington Biochemical Corp. Lakewood, N.J.). Cells cultured in Dulbecco's modified Eagle's medium (DMEM; ATCC, Manassas, Va.) with 10% fetal calf serum (ATCC) under standard tissue culture conditions at 37° C. to 70-80% confluence were exposed to AngII (Sigma, St. Louis, Mo.) or H2O2 (Sigma) in serum free culture medium (SFM) for a total of 48 h in triplicate in 24 well plates. Experiments were repeated three times. After dissociation with 0.125% trypsin-EDTA, 20 μL of 0.4% Trypan-blue (Sigma, St. Louis, Mo.) was added to each well, and a Trypan-blue exclusion viability assay was performed. The use of rats conforms with the Guide for the Care and Use of Laboratory Animals published by the US National Institutes of Health (NIH Publication No. 85-23, revised 1996).
# (§2) To determine the abundance of cardiac sodium channel (scn5a) mRNA under the various conditions, quantitative real-time RT-PCR was used. […] PCR products were analyzed by relative standard curve methods β-Actin was used as a reference when making quantitative comparison.
# [5] = tested on: cardiac sodium channel (scn5a) mRNA; test: scn5a mRNA abundance by quantitative real-time RT-PCR in H9c2 cells; format: cell-based, rat
# Description: as §1, §2
compound,measurement,setting,value
"O=C(/C=C/c1ccc(O)c(O)c1)OCCc1ccccc1 [CAPE, caffeic acid phenethyl ester]",effect of NF-κB inhibitor on binding of p50 and p65 to the channel promoter,"[1]; H9c2, CAPE",could prevent biding of both subunits
same,effect of NF-κB inhibitor on NF-κB binding to scn5a promoter probe,[2],prevented binding in response to H2O2
same,effect of NF-κB inhibitor on NF-κB binding to scn5a promoter probe,[2]; listed as caffeic acid phenethyl ester,blocked
OO [H2O2],NF-κB subunit binding on the cardiac Na+ channel promoter,"[1]; H9c2, AngII or H2O2 treatment",formation of the complete p50-p65 NF-κB heterodimer
same,change in promoter activity of construct with mutated NF-κB binding site,"scn5a promoter; APS3-NF-κBm, H9c2, AngII or H2O2",no significant change in activity
same,depression of scn5a Na+ channel promoter activity,"scn5a promoter; APS3 construct with intact NF-κB site, H9c2, 20 μM H2O2, 48 h",42.3%
same,NF-κB binding activity to scn5a promoter probe,"[2]; H9c2 nuclear extracts, 48 h AngII or H2O2",increased
same,decrease in peak Na+ current,[3],46%
same,cell death at 20 μM H2O2,"H9c2 cardiomyocytes; 20 μM H2O2, 48 h",no statistically significant increase in cell death
same,H2O2 concentration at which cell death starts,H9c2 cardiomyocytes; 48 h,≥ 50 µM
same,reduction in Na+ channel mRNA,"[4]; isolated neonatal rat myocytes, 40 nM H2O2, 48 h",45.4%
same,reduction in Na+ channel mRNA,"[5]; H9c2 cells, 20 μmol/L H2O2, 48 h",46.9%
catalase,effect of catalase on AngII-mediated downregulation of Na+ channel mRNA,"[4]; neonatal cardiomyocytes, AngII 2 nM and PEG-catalase 250 U/mL, 48 h",prevented
same,effect of catalase on AngII-mediated downregulation of Na+ channel mRNA,"[5]; H9c2, AngII 100 nM and PEG-catalase 250 U/mL, 48 h",prevented

# — patent US20130189690A1, “SCN5A Splice Variants for Use in Methods Relating to Sudden Cardiac Death and Need for Implanted Cardiac Defibrillators” (The United States Government as represented by the …, priority 2011, published 2013)
